Results: article PMC6152040, “Isolation and Characterization of Aphidicolin Derivatives from Tolypocladium inflatum” (Molecules : A Journal of Synthetic Chemistry and Natural …, 2017)

Key:
Format in all cases: cell-based
[1] = tested on: A549 lung adenocarcinoma cells; experiment: MTS cytotoxicity assay, A549; conditions: Homo sapiens, MTS method, 72 h incubation
Procedure: (§1) Compounds 1, 4–8 were tested for the cytotoxicities against A549, CNE1-MP1, A375, and MCF-7 human cancer cell lines using MTS method.
(§2) Cytotoxic activity was tested against four human cancer cell lines (A549, CNE1-MP1, A375, and MCF-7) using the MTS method. For the MTS assay, the CellTiter 96® AQueous One Solution Reagent (Promega, Madison, WI, USA) was used following the manufacturer’s instruction. In a 96-well plate, each well was plated with 2–5 × 10^3 cells (It depends on the cell multiplication rate). […] The plate was incubated for 72 h at 37 °C in a humidified, 5% CO2 atmosphere. Proliferation assessed by adding 20 μL of MTS to each well in dark followed by a 90 min incubation at 37 °C. The assay plate was read at 490 nm using a microplate reader (Bio-Rad, Hercules, CA, USA). The assay was run in triplicate.

[2] = tested on: CNE1-LMP1 stable oncoprotein LMP1 integrated nasopharyngeal carcinoma cells; experiment: MTS cytotoxicity assay, CNE1-LMP1; conditions: Homo sapiens, MTS method, 72 h incubation
Procedure: as §1, §2

[3] = tested on: A375 malignant melanoma cells; experiment: MTS cytotoxicity assay, A375; conditions: Homo sapiens, A-375, MTS method, 72 h incubation
Procedure: as §1, §2

[4] = tested on: MCF-7 breast cancer cells; experiment: MTS cytotoxicity assay, MCF-7; conditions: Homo sapiens, MCF7, MTS method, 72 h incubation
Procedure: as §1, §2

[5] = tested on: HaCaT (human keratinocyte) cells; experiment: MTS cytotoxicity assay, HaCaT negative control cells; conditions: MTS method, 72 h incubation

SMILES: CC12COC(c3ccccc3)OC1CCC1(C)C2CCC2CC3CC21CCC3(O)CO (stereo not drawn) [Compound 1, Inflatin G]
- IC50 [1]: 68.7 µM
- IC50 [2]: 35.4 µM
- IC50 [3]: 39.8 µM
- IC50 [4]: 35.2 µM
- IC50 [5]: 42.6 µM

SMILES: C[C@@]1(CO)[C@H](O)CC[C@@]2(C)[C@H]1CC[C@H]1C[C@@H]3C[C@@]12CC[C@]3(O)CO [Compound 4, aphidicolin]
- IC50 [1]: 16.2 µM
- IC50 [2]: 3.12 µM
- IC50 [3]: 37.3 µM
- IC50 [4]: 42.3 µM
- IC50 [5]: 10.4 µM

SMILES: CC(=O)OC[C@@]1(O)CC[C@]23C[C@H]1C[C@@H]2CC[C@H]1[C@](C)(CO)[C@H](O)CC[C@@]13C [Compound 5, aphidicolin-17-monoacetate]
- IC50 [1]: 5.2 µM
- IC50 [2]: 4 µM
- IC50 [3]: 40.5 µM
- IC50 [4]: 66.2 µM
- IC50 [5]: 8 µM

SMILES: COc1cc(=O)oc(C(C)[C@H](C)O)c1C (stereo partly drawn) [Compound 6, gulypyrone A]
- IC50 [1]: > 100 µM
- IC50 [2]: > 100 µM
- IC50 [3]: > 100 µM
- IC50 [4]: > 100 µM
- IC50 [5]: > 100 µM

SMILES: C=C[C@H]1C[C@@H](C)C[C@@H](C)[C@@H]1c1c(O)ccn(O)c1=O [Compound 7 and 8, pyridoxatin rotamers A (7) and B (8)]
- IC50 [1]: 0.44 µM
- IC50 [2]: 0.2 µM
- IC50 [3]: 0.1 µM
- IC50 [4]: 0.17 µM
- IC50 [5]: > 47.5 µM

SMILES: CC(=O)O[C@H]1C(=O)[C@@]2(C)[C@H]([C@H](OC(=O)c3ccccc3)[C@]3(O)C[C@H](OC(=O)[C@H](O)[C@@H](NC(=O)c4ccccc4)c4ccccc4)C(C)=C1C3(C)C)[C@]1(OC(C)=O)CO[C@@H]1C[C@@H]2O [paclitaxel, reference compound]
- IC50 [1]: 0.03 µM
- IC50 [2]: 0.0042 µM
- IC50 [3]: 0.0089 µM
- IC50 [4]: 0.014 µM
- IC50 [5]: 0.024 µM
